Data from article PMC5789847, “Bismuth antimicrobial drugs serve as broad-spectrum metallo-β-lactamase inhibitors” (Nature Communications, 2018).

Columns and labels:
[1] = system: NDM-HK; assay: Murine peritonitis infection, mucin-assisted model; assay type: in vivo, BALB/c mice; conditions: 2% mucin, i.p. twice daily
From the text: All experiments were approved by, and performed in accordance with the guidelines approved by Committee on the Use of Live Animals in Teaching and Research (CULATR), the University of Hong Kong. A total of 6–8-week-old, female BALB/c mice (18–22 g) were purchased from Charles River Laboratories, Inc. and were used in all mouse studies. The animals were randomized to cages for each experiment.
In mucin-assisted model, for infection with NDM-1-positive bacteria, an overnight culture of NDM-HK was performed 1:250 dilution in 100 mL LB broth and re-grew to about OD600 0.3 in a 500-mL flask after 2.5 h shaking at 37 °C, 250 rpm. Bacterial pellets were collected and washed by PBS buffer three times for further use. Mice were infected intraperitoneally (i.p.) with a dose of 1 × 10^5 CFU of bacteria in PBS supplemented with 2% mucin. […] Twice-daily treatment via i.p. injection was continued throughout the whole experimental course. For the infection with NDM-1-negative bacteria, all the operations of infection were similar to those used for NDM-HK, except that NDM-HK PCV was used as infection-causing bacteria. […] Twice-daily treatment via i.p. injection was continued throughout the whole experimental course. Body weights and mice survival were monitored till endpoint of the experiment.

[2] = system: NDM-HK (NDM-1^+); assay: microbe, parasite or virus in culture; assay type: cell-based, E. coli; conditions: Escherichia coli
Procedure: (§1) MIC values were determined by standard broth micro-dilution method (Clinical and Laboratory Standards Institute (CLSI) M100-S20, 2010)[64]. Briefly, bacterial cells were cultured in LB broth overnight at 37 °C at 250 rpm and the OD was measured at 600 nm (OD600). The bacterial density was adjusted to about 1 × 10^6 CFU mL^−1 and checked by CFU counting on agar plates afterwards. Tested antibiotics or Bi(III) compounds were added triplicately into individual wells of flat-bottomed 96-well plates and performed 2-fold serial dilution, followed by addition of prepared bacterial inocula. The plate was then incubated at 37 °C for overnight. […] The MIC was determined as the lowest concentration of a drug that could inhibit the growth of microorganism by both visual reading and OD reading at 600 nm using a microtiter plate reader.
(§2) Resulting growth (or lack of growth) was examined after overnight culturing and the lowest concentration that inhibits 99.9% of the original culture was taken as MBC.
(§3) Other procedures were kept strictly the same. […] Synergism was defined when FICI ≤ 0.5, indifference was defined when FICI > 0.5 and < 4, and antagonism was defined when FICI≥4[65]. […] All of the determinations were performed at least in triplicate on different days.

[3] = system: IMP-BL21 (IMP-4^+); assay: microbe, parasite or virus in culture; assay type: cell-based, E. coli
Procedure: as §1, §2, §3

[4] = system: VIM-BL21 (VIM-2^+); assay: microbe, parasite or virus in culture; assay type: cell-based, E. coli
Procedure: as §1, §2, §3

[5] = system: NDM-BL21; assay: Microdilution MIC assay; assay type: cell-based, E. coli; conditions: Escherichia coli, CBS0, read-out: MIC of MER, CBS at 0
From the text: (§4) Other procedures were kept strictly the same.

[6] = system: NDM-Rosetta; assay: Microdilution MIC assay; assay type: cell-based, E. coli; conditions: Escherichia coli, CBS0, read-out: MIC of MER, CBS at 0
From the text: as §4

[7] = system: NDM-HK; assay: In vitro cell infection assay (MDCK cells); assay type: cell-based, E. coli; conditions: MOI 200, MER at 2-fold MIC alone, overnight
Procedure: MDCK cell was cultured in minimum essential Media (MEM) supplemented with fetal bovine serum (FBS, 10%) and grown at 37 °C in 5% CO2-humidified atmosphere for 3 days. About 1.0 × 10^5 MDCK cells were seeded per well in 24-well plates and incubated as described above for 48 h to ensure confluency. Logarithmic cultures of NDM-HK were washed with PBS for three times and re-suspended in MEM/10% FBS resulting in the initial bacterial density of about 2.0 × 10^7 CFU mL^−1. Then, 500 μL of bacterial suspension were added to each well and substituted for the previous MDCK culture medium. The plates were centrifuged at 800 × g for 10 min and then incubated for another 6 h, executing the bacterial infection at multiplicity of infection (MOI) of 200. We then used two infection models for examination, viz, the cell-associated bacterial infection and cell-invaded bacterial infection. The cell-associated bacteria are herein defined as bacteria that attach to, penetrate, or transcytose in MDCK cells, while the cell-invaded bacteria are defined as bacteria that penetrate or transcytose MDCK cells. For the cell-invaded infection, the infected cells were incubated in culture medium supplemented with ciprofloxacin (100 µg mL^−1) for 1 h to remove extracellular bacteria. Then, the treated cells were washed vigorously with PBS for six times and replenished with culture medium. For the cell-associated infection, the infected cells were only washed vigorously with PBS for six times to remove unbound bacteria. The infected MDCK cells were then exposed to either MER or CBS, or their combination for overnight under identical cell culture condition. Cells in the absence of drugs served as a control. The bacterial loads were examined by lysing MDCK cells with 1% Triton X-100 in PBS and serially diluting the resulting lysates to enumerate bacterial colonies by agar plating. The assay was performed in triplicate, repeated three times, and results were expressed as average ± SD.

[8] = system: NDM-K. pneumonia (NDM-1^+); assay: Microdilution MIC/MBC and checkerboard assay; assay type: cell-based, Klebsiella pneumonia; conditions: NDM-K. pneumonia (NDM-KP)
Procedure: as §1, §2, §3

[9] = system: NDM-C. freundii (NDM-1^+); assay: Microdilution MIC/MBC and checkerboard assay; assay type: cell-based, Citrobacter freundii; conditions: NDM-C. freundii (NDM-CF)
Procedure: as §1, §2, §3

[10] = system: NDM-HK PCV; assay: Murine peritonitis infection with NDM-1-negative bacteria; assay type: in vivo, BALB/c mice; conditions: identical dose of MER, lethal dose of NDM-HK PCV
[11] = system: NDM-Rosetta OX; assay: Microdilution MIC assay; assay type: cell-based, E. coli; conditions: Escherichia coli, CBS0, read-out: MIC of MER, CBS at 0, NDM-Rosetta OX (NDM-1 overexpressing); CBS 0 µg mL-1
Procedure: For the test of NDM-Rosetta OX, the growth condition briefly goes as follow. Overnight culture of NDM-Rosetta was 1000-fold diluted into fresh LB medium and regrew to OD ~0.6. The overexpression of NDM-1 was induced by addition of 1 mM isopropyl β-D-1-thiogalactopyranoside (IPTG) for 4 h at 37 °C. The following susceptibility test was performed as described in the Microdilution MIC and MBC assay section in the methodology by using the resulting bacterial pellets with the supplementation of 200 µM IPTG.
as §4

[12] = system: NDM-HK; assay: Resistance study: MPC and mutation frequency; assay type: cell-based, E. coli; conditions: no CBS
[13] = system: C208A-Rosetta; assay: Microdilution MIC assay; assay type: cell-based, E. coli; conditions: Escherichia coli, CBS0, read-out: MIC of MER, CBS at 0
Procedure: For the test of C208A-Rosetta, the growth condition briefly goes as follow. Overnight culture of C208A-Rosetta was diluted into fresh LB medium (1000-fold) and regrew to OD ~0.6. The overexpression of NDM-1-C208A was induced by addition of 200 μM isopropyl β-D-1-thiogalactopyranoside (IPTG) for 18 h at 25 °C. The following susceptibility test was performed as described in the Microdilution MIC and MBC assay section in the methodology by using the resulting bacterial pellets with the supplementation of 200 μM IPTG.
as §4

[14] = Escherichia coli, read-out: MBC of MER alone
[15] = Escherichia coli, read-out: MIC of MER alone

With C[C@@H](O)[C@H]1C(=O)N2C(C(=O)O)=C(S[C@@H]3CN[C@H](C(=O)N(C)C)C3)[C@H](C)[C@H]12 [MER, meropenem] the “mice rescued at endpoint, MER monotherapy” value [1] was “two of the eight mice”, the MIC ([2]; CBS0, read-out: MIC of MER alone) was 16 µg/mL and the MBC ([2]; read-out: MBC of MER alone) was 16 µg/mL. For the same molecule, the MBC [3, 14] was 32 µg/mL, the MIC [3, 15] was 32 µg/mL and the “MBC of MER alone” value ([3]; IMP-BL21) was 32/32 µg mL^-1. The “MIC of MER alone” value ([3]; IMP-BL21) was 32/32 µg mL^-1, the MBC [4, 14] was 32 µg/mL and the MIC [4, 15] was 32 µg/mL. The “MBC of MER alone” value ([4]; VIM-BL21) was 32/32 µg mL^-1, the “MIC of MER alone” value ([4]; VIM-BL21) was 32/32 µg mL^-1 and the MIC [5] was 16 µg/mL. For the same molecule, the MIC [6] was 32 µg/mL, the “viable bacterial loads, cell-associated infection” value [7] was ~10^6 CFU and the MBC ([8]; Klebsiella pneumoniae, read-out: MBC of MER alone) was 16 µg/mL. The MIC ([8]; Klebsiella pneumoniae, read-out: MIC of MER alone) was 16 µg/mL, the “MBC of MER alone” value [8] was 16/16 µg mL^-1 and the “MIC of MER alone” value [8] was 16/16 µg mL^-1. The MBC ([9]; Citrobacter freundii, read-out: MBC of MER alone) was 8 µg/mL, the MIC ([9]; Citrobacter freundii, read-out: MIC of MER alone) was 8 µg/mL and the “MBC of MER alone” value [9] was 8/8 µg mL^-1. The “MIC of MER alone” value [9] was 8/8 µg mL^-1, the “outcome of MER monotherapy in mice infected with NDM-HK PCV” value [10] was “cured all the mice” and the MIC [11] was 256 µg/mL. For the same molecule, the “MPC of MER alone” value [12] was 32 folds of MIC and the MIC [13] was 0.12 µg/mL.
